This test relates to mice (wild-type and MAS receptor gene homozygous mutant). In words: Metrazol administration test (metrazol dose testing, seizure susceptibility). The test is classed as in vivo, mouse. Conditions: for Dose (mg/kg body weight), Observable: T/C / Dose (mg/kg body weight), Observable: Death / Dose (mg/kg body weight), Observable: Twitch / Dose (mg/kg body weight), Observable: Extension: F2N1 mice; for Dose (mg/kg body weight), Observable: T/C: metrazol dose to T/C seizure; for Dose (mg/kg body weight), Observable: Death: metrazol dose to death; for Dose (mg/kg body weight), Observable: Twitch: metrazol dose to first twitch; for Dose (mg/kg body weight), Observable: Extension: metrazol dose to tonic extension. The protocol: A metrazol administration test can be used to screen animals for varying susceptibilities to seizures or similar events. For example, a 5 mg/ml solution of metrazol can be infused through the tail vein of a mouse at a rate of, e.g., approximately 0.375 ml/min. The infusion will cause all mice to experience seizures, followed by death. Those mice that enter the seizure stage the soonest are believed to be more prone to seizures.
The transgenic mice were analyzed for phenotypic changes. […] These characteristics response parameters are: (1) first twitch; (2) tonic/clonic seizure; (3) tonic extension, […]; and (4) death.

Setting [1] is: genotype −/− (MAS homozygous mutant).

As for `C1CCc2nnnn2CC1` [metrazol], under “genotype +/+ (wild-type)”, the “Dose (mg/kg body weight), Observable: T/C” value was 37.94 mg/kg body weight; the “Dose (mg/kg body weight), Observable: Death” value is 96.27 mg/kg body weight; the “Dose (mg/kg body weight), Observable: Twitch” value came out at 25.59 mg/kg body weight; the “Dose (mg/kg body weight), Observable: Extension” value is 75.60 mg/kg body weight. In addition, under setting [1], the “Dose (mg/kg body weight), Observable: T/C” value is listed as 45.28 mg/kg body weight; the “Dose (mg/kg body weight), Observable: Death” value is 138.55 mg/kg body weight; the “Dose (mg/kg body weight), Observable: Twitch” value was 33.95 mg/kg body weight; the “Dose (mg/kg body weight), Observable: Extension” value turned out to be 115.89 mg/kg body weight. Where the note is “homozygous mutants as compared to wild-type animals”, the “response threshold to metrazol” value is “increased”.

The values are drawn from patent US20020088018A1, “Transgenic mice containing MAS orphan receptor gene disruptions” (priority 2000, published 2002).
